Experimental findings from patent US8575156B2, “Cyclic inhibitors of 11β-hydroxysteroid dehydrogenase 1” (Vitae Pharmaceuticals, Inc., priority 2007, dated 2013) are described below.

The target of this assay is 11β-HSD1 (Homo sapiens, UniProt P28845). As to the kind of experiment: biochemical. As to conditions: for IC50: IC50 Range, Biological Test Example 1, microsomes from CHO cells overexpressing human 11β-HSD1; for inhibition at 0.1 µM: read-out: Average % inhibition at 100 nM, Biological Test Example 1; for inhibition at 0.1111 µM: read-out: Average % inhibition at 111.1 nM, Biological Test Example 1, 111.1 nM compound.
11β-HSD1, sequence (P28845 whole entry): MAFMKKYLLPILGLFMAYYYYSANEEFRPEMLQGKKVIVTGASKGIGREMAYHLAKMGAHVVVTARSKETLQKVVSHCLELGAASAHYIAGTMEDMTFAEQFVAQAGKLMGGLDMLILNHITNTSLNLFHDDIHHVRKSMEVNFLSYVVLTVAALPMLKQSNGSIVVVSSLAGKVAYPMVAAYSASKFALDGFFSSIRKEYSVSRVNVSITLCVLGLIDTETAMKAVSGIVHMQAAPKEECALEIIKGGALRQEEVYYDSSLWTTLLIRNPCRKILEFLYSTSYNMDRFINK

Molecules are shown by their SMILES. Where two headings read alike, the source gives them in different places.

With `C[C@@H](c1cccc(Br)c1)N1CC[C@](CC(C)(C)O)(c2ccc(F)cc2)OC1=O` [EXAMPLE 356, (S)-3-((S)-1-(3-bromophenyl)ethyl)-6-(4-fluorophenyl)-6-(2-hydroxy-2-methylpropyl)-1,3-oxazinan-2-one], the IC50 – broadly, the concentration needed to halve the response being measured – was less than 100 nM. Also, the inhibition (commonly the change of the read-out against control, counted positive when it falls) at 0.1 µM (100 nM) came to 92%. For `CC[C@@H](c1ccc(Br)cc1)N1CC[C@](CC(O)CO)(c2ccc(F)cc2)OC1=O` (single isomer, unassigned) [EXAMPLE 255 Isomer 1], the IC50 is less than 100 nM. Also, the inhibition at 0.1 µM (100 nM compound) amounted to 92.5%. In the case of `O=C1OC(CCO)(c2ccccc2)CCN1c1cccc(-c2ccc(F)cc2Cl)n1` (stereo not shown) [EXAMPLE 116, 3-(6-(2-chloro-4-fluorophenyl)pyridin-2-yl)-6-(2-hydroxyethyl)-6-phenyl-1,3-oxazinan-2-one], the IC50 was less than 100 nM and the inhibition at 0.1111 µM stood at 97.6%. On to `COc1ccc([C@H](C)N2CC[C@](CCCNS(C)(=O)=O)(c3ccc(F)cc3)OC2=O)cc1` [EXAMPLE 314, N-(3-((R)-6-(4-fluorophenyl)-3-((S)-1-(4-methoxyphenyl)ethyl)-2-oxo-1,3-oxazinan-6-yl)propyl)methanesulfonamide], for which the IC50 is less than 100 nM. Also, the inhibition at 0.1 µM (100 nM) amounted to 96.5%. Turning to `CNS(=O)(=O)c1cccc(-c2cccc(N3CCC(C)(c4ccccc4)OC3=O)c2)c1` (stereo not shown) [EXAMPLE 30, N-methyl-3′-(6-methyl-2-oxo-6-phenyl-1,3-oxazinan-3-yl)biphenyl-3-sulfonamide], the IC50 was in the range of 100 to 1000 nM and the inhibition at 0.1111 µM stood at 23.1%. In turn, `O=C1OC(CCCO)(c2ccc(F)cc2)CCN1Cc1c(F)cccc1Cl` (stereo not shown) [EXAMPLE 349, 3-(2-chloro-6-fluorobenzyl)-6-(4-fluorophenyl)-6-(3-hydroxypropyl)-1,3-oxazinan-2-one] had an IC50 of less than 100 nM. Also, the inhibition at 0.1 µM (100 nM) stood at 89.8%. `Cc1cccc(C2(C)CCN([C@@H](C)c3ccccc3)C(=O)O2)c1` (stereo partly drawn) [EXAMPLE 87, 6-methyl-3-((S)-1-phenylethyl)-6-m-tolyl-1,3-oxazinan-2-one] showed an IC50 of less than 100 nM.

For `O=C1OC(CCO)(c2ccccc2)CCN1c1ccc(F)c(-c2ccc(F)cc2)c1` (stereo not shown) [EXAMPLE 96, 3-(4′,6-difluorobiphenyl-3-yl)-6-(2-hydroxyethyl)-6-phenyl-1,3-oxazinan-2-one], the IC50 was less than 100 nM and the inhibition at 0.1111 µM was found to be 91.9%. The molecule `C=CC[C@@]1(c2ccc(F)cc2)CCN([C@@H](C)c2ccc(Cl)c(F)c2)C(=O)O1` (single isomer, unassigned) [EXAMPLE 497 Isomer 1] displayed an IC50 of less than 100 nM.

`C[C@@H](c1ccc(-c2ccccc2)cc1)N1CC[C@](CCCO)(c2ccccc2)OC1=O` [EXAMPLE 490, (R)-3-((S)-1-(biphenyl-4-yl)ethyl)-6-(3-hydroxypropyl)-6-phenyl-1,3-oxazinan-2-one] showed an IC50 of less than 100 nM. Besides, the inhibition at 0.1 µM (100 nM) was determined as 94.8%. `CC1(c2ccccc2)CCN(c2nccc(-c3ccc(F)cc3F)n2)C(=O)O1` (stereo not shown) [EXAMPLE 59, 3-(4-(2,4-difluorophenyl)pyrimidin-2-yl)-6-methyl-6-phenyl-1,3-oxazinan-2-one]: the IC50 is 100 to 1000 nM and the inhibition at 0.1111 µM amounted to 18%. Molecule `O=C1OC(CCCO)(c2ccc(F)cc2)CCN1Cc1ccccc1Br` (stereo not shown) [EXAMPLE 351, 3-(2-bromobenzyl)-6-(4-fluorophenyl)-6-(3-hydroxypropyl)-1,3-oxazinan-2-one] showed an IC50 of less than 100 nM. Also, the inhibition at 0.1 µM (100 nM) worked out at 83.1%. As for `O=C1OC(CCO)(c2ccccc2F)CCN1c1ccc(Cl)c(-c2ccc(F)cc2F)n1` (stereo not shown) [EXAMPLE 135, 3-(5-chloro-6-(2,4-difluorophenyl)pyridin-2-yl)-6-(2-fluorophenyl)-6-(2-hydroxyethyl)-1,3-oxazinan-2-one], the IC50 is less than 100 nM and the inhibition at 0.1111 µM was 93.8%. For the same molecule, where the note is “100 nM compound”, the inhibition at 0.1 µM is 88.9%.
